“And” between values parts separate entries of the source, which are not always exact repeats. Identical values can stand only once. Inconclusive results and toxic doses are left out. How the source made its calls: active means survival T/C of 150% or more; inactive means T/C below 125% in these data.
Test system: BDF1 mice, B16 melanoma ip, median survival T/C
Test: NCI In Vivo Anticancer Drug Screen. Data for tumor model B16 Melanoma (intraperitoneal) in B6D2F1 (BDF1) mice
Conditions: endpoint: median survival time, schedule: Q01DX009 (ip), higher = longer survival
Outline: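 Tumor-bearing mice received test compound or vehicle. Survival or tumor size was then measured in both groups. The treated-group figure was divided by the control-group figure.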

[1] = dose: 50.0 mg/kg/injection, vehicle: saline
[2] = dose: 100.0 mg/kg/injection, vehicle: saline
[3] = dose: 200.0 mg/kg/injection, vehicle: saline
[4] = dose: 400.0 mg/kg/injection, vehicle: saline
[5] = dose: 50.0 mg/kg/injection, vehicle: saline with Tween-80
[6] = dose: 200.0 mg/kg/injection, vehicle: saline with Tween-80
[7] = dose: 400.0 mg/kg/injection, vehicle: saline with Tween-80
[8] = dose: 100.0 mg/kg/injection, vehicle: Klucel (hydroxypropylcellulose) (HPC)
[9] = dose: 200.0 mg/kg/injection, vehicle: Klucel (hydroxypropylcellulose) (HPC)
[10] = dose: 400.0 mg/kg/injection, vehicle: Klucel (hydroxypropylcellulose) (HPC)
[11] = dose: 100.0 mg/kg/injection, vehicle: saline with Tween-80

Measured: T/C

O=C1NC(O)CCN1C1OC(CO)C(O)C1O (centres undefined)
inactive: dose: 25.0 mg/kg/injection, vehicle: saline 111 % of control and 124 % of control | [1] 110 % of control and 121 % of control | [2] 102 % of control and 106 % of control | [3] 96 % of control and 120 % of control | [4] 106 % of control and 118 % of control | dose: 800.0 mg/kg/injection, vehicle: saline 105 % of control and 107 % of control

CN(C)CC(Cl)CCl (centres undefined)
inactive: [1] 98 % of control | [2] 102 % of control | [3] 105 % of control | [4] 108 % of control

CCOC(=O)CCCc1ccc(N=NN(C)C)cc1
inactive: dose: 1.56 mg/kg/injection, vehicle: saline with Tween-80 102 % of control | dose: 3.13 mg/kg/injection, vehicle: saline with Tween-80 105 % of control | dose: 6.25 mg/kg/injection, vehicle: saline with Tween-80 100 % of control

CCCCCCCCCCOCCCCCCCCCC
inactive: dose: 12.5 mg/kg/injection, vehicle: saline with Tween-80 95 % of control | dose: 25.0 mg/kg/injection, vehicle: saline with Tween-80 95 % of control | [5] 95 % of control | [6] 88 % of control | [7] 88 % of control

C[C@]12CC[C@@H]3c4ccc(O)cc4CC[C@H]3[C@@H]1CC[C@@H]2O
inactive: dose: 6.25 mg/kg/injection, vehicle: Klucel (hydroxypropylcellulose) (HPC) 97 % of control | dose: 12.5 mg/kg/injection, vehicle: Klucel (hydroxypropylcellulose) (HPC) 94 % of control | dose: 25.0 mg/kg/injection, vehicle: Klucel (hydroxypropylcellulose) (HPC) 93 % of control | dose: 50.0 mg/kg/injection, vehicle: Klucel (hydroxypropylcellulose) (HPC) 97 % of control | [8] 88 % of control | [9] 87 % of control

NC(CNC(=O)C(Cl)Cl)C(=O)O (centres undefined)
inactive: dose: 6.25 mg/kg/injection, vehicle: water 93 % of control | dose: 12.5 mg/kg/injection, vehicle: water 105 % of control | dose: 25.0 mg/kg/injection, vehicle: water 100 % of control | dose: 50.0 mg/kg/injection, vehicle: water 98 % of control | dose: 100.0 mg/kg/injection, vehicle: water 89 % of control

CCc1ccc(NC(=O)Nc2cccc(Cl)c2)cc1
inactive: [8] 91 % of control | [9] 102 % of control | [10] 88 % of control

O=C(Nc1ccccc1)OCCOc1ccc(Cl)cc1Cl
inactive: [8] 96 % of control | [9] 114 % of control | [10] 110 % of control

Cc1cc(=NO)cc(C)n1O
inactive: dose: 25.0 mg/kg/injection, vehicle: distilled water + alcohol 100 % of control | dose: 50.0 mg/kg/injection, vehicle: distilled water + alcohol 98 % of control | dose: 200.0 mg/kg/injection, vehicle: distilled water + alcohol 86 % of control

Cc1c(Cl)ccc2c(C(O)CBr)cc(-c3ccccc3)nc12 (centres undefined)
inactive: [11] 91 % of control | [6] 87 % of control

CC(=Nc1ccccc1)C1=C(O)C(CC(C)C)NC1=O (centres undefined)
inactive: [5] 107 % of control | [11] 103 % of control | [6] 96 % of control | [7] 88 % of control
